# Experimental data published in patent US20200231562A1, “NOVEL MACROLIDE ANTIBIOTICS” (HELMHOLTZ-ZENTRUM FÜR INFEKTIONSFORSCHUNG GMBH, priority 2014, published 2020).
# Read-outs that look alike come from different tables or passages of the source.
# Experiments:
# Assay type in all cases: cell-based
# [1] = test system: Candida albicans ATCC14053; assay: Agar diffusion assay; settings: 50 μL of 0.5 mg in 1 mL methanol per 7 mm hole; n.a. = no activity observed
# Method: (§1) Antimicrobial activities of the gulmirecins were determined in a primary screen against Bacillus subtilis ATCC 6633, Staphylococcus aureus SG511, Staphylococcus auricularis DSM 20609, Mycobacterium vaccae IMET 10670, Pseudomonas aeruginosa K799/61, Escherichia coli SG458, Sporobolomyces salmonicolor SBUG 549, Candida albicans ATCC14053 and Penicillium notatum JP 36. To this end, holes with 7 mm diameter were aseptically punched in the respective agar medium. Subsequently, the agar plates were inoculated with the test organisms. 0.5 mg of every test compound was dissolved in 1 mL of methanol, and 50 μL of this solution was transferred to a single hole. Ciprofloxacin and amphotericin B served as positive controls. After evaporation of the solvent, the agar plates were incubated depending on the growth conditions of the test organisms. […] The test results are shown in Table 6 below, wherein the given values represent the diameters of the respective inhibition zone in the agar diffusion assay.
# [2] = test system: Penicillium notatum JP 36; assay: Agar diffusion assay; settings: 50 μL of 0.5 mg in 1 mL methanol per 7 mm hole; n.a. = no activity observed
# Method: as §1
# [3] = test system: Sporobolomyces salmonicolor SBUG 549; assay: Agar diffusion assay; settings: 50 μL of 0.5 mg in 1 mL methanol per 7 mm hole; n.a. = no activity observed
# Method: as §1
# [4] = test system: Bacillus subtilis DSM 10; assay: MIC by microbroth dilution; settings: Bacillus subtilis, DSM10, 16 h, 30° C., n.i. = no inhibition up to 67 μg/ml, read-out: MIC
# Method: (§2) Bacterial strains. Bacterial wildtype strains used in susceptibility assays were either part of HZI's strain collection or purchased from the German Collection of Microorgansims and Cell Cultures (Deutsche Sammlung von Mikroorganismen und Zellkulturen, DSMZ).
# (§3) Minimum inhibitory concentration (MIC) was determined by microbroth dilution. In brief, overnight cultures of bacteria (EBS medium) were diluted to OD600 0.01. Disciformycin A (1) or B (2) dissolved in DMSO was added directly to the cultures in 96-well plates (Sarstedt, flat bottom) in duplicate and the compound was tested in serial dilution. […] After 16 h incubation at 900 rpm and 30° C. on a microplate shaker (Titramax, Heidolph) absorbance at 600 nm was measured using a microplate reader (POLARstar Omega, BMG Labtech). MIC values were determined by sigmoidal curve fitting.
# [5] = test system: Chromobacterium violaceum DSM 30191; assay: MIC by microbroth dilution; settings: 16 h, 30° C., n.i. = no inhibition up to 67 μg/ml
# Method: as §2, §3
# [6] = test system: Escherichia coli DSM 1116; assay: MIC by microbroth dilution; settings: 16 h, 30° C., n.i. = no inhibition up to 67 μg/ml
# Method: as §2, §3
# [7] = test system: Micrococcus luteus DSM 20030; assay: MIC by microbroth dilution; settings: 16 h, 30° C., n.i. = no inhibition up to 67 μg/ml
# Method: as §2, §3
# [8] = test system: Mycobacterium diemhoferi DSM 43524; assay: MIC by microbroth dilution; settings: Mycobacterium, DSM43524, 16 h, 30° C., n.i. = no inhibition up to 67 μg/ml, read-out: MIC
# Method: as §2, §3
# [9] = test system: Mycobacterium sp. DSM 43270; assay: MIC by microbroth dilution; settings: 16 h, 30° C., n.i. = no inhibition up to 67 μg/ml
# Method: as §2, §3
# [10] = test system: Nocardioides simplex DSM 20130; assay: MIC by microbroth dilution; settings: Pimelobacter simplex, DSM20130, 16 h, 30° C., n.i. = no inhibition up to 67 μg/ml, read-out: MIC
# Method: as §2, §3
# [11] = test system: Paenibacillus polymyxa DSM 36; assay: MIC by microbroth dilution; settings: Paenibacillus polymyxa, DSM36, 16 h, 30° C., n.i. = no inhibition up to 67 μg/ml, read-out: MIC
# Method: as §2, §3
# [12] = test system: Pseudomonas aeruginosa DSM 50071; assay: MIC by microbroth dilution; settings: 16 h, 30° C., n.i. = no inhibition up to 67 μg/ml
# Method: as §2, §3
# [13] = test system: Staphylococcus aureus (MRSA) DSM-11822; assay: MIC by microbroth dilution; settings: microbroth dilution, 16 h, 30° C., n.i. = no inhibition up to 67 μg/ml
# Method: as §2, §3
# [14] = test system: Staphylococcus aureus DSM 346; assay: MIC by microbroth dilution; settings: Staphylococcus aureus, DSM346, 16 h, 30° C., n.i. = no inhibition up to 67 μg/ml, read-out: MIC
# Method: as §2, §3
# [15] = test system: Staphylococcus aureus Mu50 (MRSA/VRSA) ATCC 700699; assay: MIC by microbroth dilution; settings: 16 h, 30° C., n.i. = no inhibition up to 67 μg/ml
# Method: as §2, §3
# [16] = test system: Staphylococcus aureus N315 (MRSA); assay: MIC by microbroth dilution; settings: 16 h, 30° C., n.i. = no inhibition up to 67 μg/ml
# Method: as §2, §3
# [17] = test system: Staphylococcus aureus Newman; assay: MIC by microbroth dilution; settings: 16 h, 30° C., n.i. = no inhibition up to 67 μg/ml
# Method: as §2, §3
# [18] = test system: Staphylococcus camosus DSM 20501; assay: MIC by microbroth dilution; settings: 30° C., n.i. = no inhibition up to 67 μg/ml
# Method: as §2, §3
# [19] = test system: Chinese hamster ovary CHO-K1 cells (ACC-110); assay: Cytotoxicity (MTT) assay, antiproliferative activity; settings: Cricetulus griseus, 120 h, CHO-K1, 5 d incubation
# Method: (§4) Half maximal inhibitory concentrations (IC50) in μg/ml of disciformycin A (1) and disciformycin B (2) for inhibiting the proliferative activity of human HCT-116 colon carcinoma cells, mouse fibroblast cells L929, and Chinese hamster ovary CHO-K1 cells were determined. Cells were seeded at 6×10^3 cells per well of 96-well plates (Corning CellBind®) in complete medium (180 μl) and directly treated with disciformycin dissolved in DMSO in serial dilution. The compound was tested in duplicate, as well as the internal solvent control. After 5 d incubation, 5 mg/ml MTT in PBS (20 μL) was added per well and it was further incubated for 2 h at 37° C. The medium was then discarded and cells were washed with PBS (100 μl) before adding 2-propanol/10N HCl (250:1, v/v; 100 μl) in order to dissolve formazan granules. The absorbance at 570 nm was measured using a microplate reader (EL808, Bio-Tek Instruments Inc.). The amount of formazan, i.e. relative absorption, is thereby proportional to the number of actively proliferating cells.
# [20] = test system: HCT-116 colon carcinoma cells (ACC-581); assay: as above; settings: Homo sapiens, 120 h, HCT-116, 5 d incubation
# Method: as §4
# [21] = test system: Mouse fibroblast cells L929 (ACC-2); assay: as above; settings: 120 h, L929, 5 d incubation
# Method: as §4
# [22] = test system: S. aureus N315 wildtype (WT); assay: Susceptibility (MIC) of S. aureus N315 wildtype; settings: Staphylococcus aureus
# [23] = test system: S. aureus N315 mutant Mt50DscA.1; assay: Susceptibility (MIC) of Disciformycin A-resistant mutant; settings: Staphylococcus aureus
# [24] = test system: S. aureus N315 mutant Mt50DscA.2; assay: as above; settings: Staphylococcus aureus
# [25] = test system: S. aureus N315 mutant Mt50DscA.3; assay: as above; settings: Staphylococcus aureus
# [26] = test system: S. aureus N315 mutant Mt50DscA.4; assay: as above; settings: Staphylococcus aureus
# [27] = test system: S. aureus N315 mutant Mt50DscA.5; assay: as above; settings: Staphylococcus aureus
# [28] = test system: S. aureus N315 mutant Mt50DscA.6; assay: as above; settings: Staphylococcus aureus
# [29] = test system: S. aureus N315 mutant Mt50DscA.8; assay: as above; settings: Staphylococcus aureus
# [30] = test system: S. aureus N315 Mt50DscA.9; assay: as above; settings: Staphylococcus aureus
# [31] = test system: S. aureus N315 mutant Mt50DscA.10; assay: as above; settings: Staphylococcus aureus
# [32] = test system: S. aureus N315 mutant Mt50DscA.11; assay: as above; settings: Staphylococcus aureus
# [33] = test system: S. aureus Newman in PMA-differentiated human THP-1 cell line (macrophages); assay: Intra-macrophage activity
# Description: The PMA-differentiated human THP-1 cell line (macrophages) was used as cellular host for infection with S. aureus Newman at an MOI (multiplicity of infection) of 10. […] Intracellular bacteria were recovered and serial dilutions were streaked out on CASO-Agar for cfu counting. The reference drug rifampicin reduced the number of intracellular bacteria by ca. 4 logs (at 8×MIC).
# [34] = test system: Bacillus subtilis ATCC 6633; assay: Agar diffusion assay; settings: ATCC6633, 50 μL of 0.5 mg in 1 mL methanol per 7 mm hole, n.a. = no activity observed, read-out: diameter of inhibition zone
# Method: as §1
# [35] = test system: Escherichia coli SG458; assay: Agar diffusion assay; settings: 50 μL of 0.5 mg in 1 mL methanol per 7 mm hole, n.a. = no activity observed, read-out: diameter of inhibition zone
# Method: as §1
# [36] = test system: Mycobacterium vaccae IMET 10670; assay: Agar diffusion assay; settings: Mycolicibacterium vaccae, IMET10670; 50 μL of 0.5 mg in 1 mL methanol per 7 mm hole; n.a. = no activity observed; read-out: diameter of inhibition zone
# Method: as §1
# [37] = test system: Pseudomonas aeruginosa K799/61; assay: Agar diffusion assay; settings: 50 μL of 0.5 mg in 1 mL methanol per 7 mm hole, n.a. = no activity observed, read-out: diameter of inhibition zone
# Method: as §1
# [38] = test system: Staphylococcus aureus SG511; assay: Agar diffusion assay; settings: 50 μL of 0.5 mg in 1 mL methanol per 7 mm hole, n.a. = no activity observed, read-out: diameter of inhibition zone
# Method: as §1
# [39] = test system: Staphylococcus auricularis DSM 20609; assay: Agar diffusion assay; settings: DSM20609, 50 μL of 0.5 mg in 1 mL methanol per 7 mm hole, n.a. = no activity observed, read-out: diameter of inhibition zone
# Method: as §1
# [40] = test system: methicillin-resistant S. aureus (MRSA); assay: Bouillon dilution assay (MIC90); settings: Staphylococcus aureus, tryptic soy broth, 37° C., 16 h
# Method: Before incubation, 3 was added in decreasing concentrations ([…] to 12.5 μg/ml). After incubation, the OD600 was measured. The experiment was run in triplicate. Ciprofloxacin was used as a positive control.
# [41] = Staphylococcus aureus, read-out: MIC
smiles,measurement,setting,value
C[C@@H]1[C@H](O)[C@@H](C)/C=C/C=C/C=C/C=C/C=C/C=C/C=C/[C@H](O[C@@H]2O[C@H](C)[C@@H](O)[C@H](N)[C@@H]2O)C[C@@H]2O[C@](O)(C[C@@H](O)C[C@@H](O)[C@H](O)CC[C@@H](O)C[C@@H](O)CC(=O)O[C@H]1C)C[C@H](O)[C@H]2C(=O)O [Amphotericin B],diameter of inhibition zone,[1],22 mm
same,diameter of inhibition zone,[2],18 mm
same,diameter of inhibition zone,[3],19 mm
"C/C=C(/C)[C@H]1C/C=C(\C)[C@@H](O[C@H]2O[C@H](CO)[C@@H](O)[C@@H]2O)[C@H](OC(=O)CC(C)C)C(=O)/C=C/[C@H](C)C(=O)O1 [Compound 2, disciformycin B]",MIC,[4],0.83 µg/mL
same,MIC,[5],n.i.
same,MIC,[6],n.i.
same,MIC,[7],n.i.
same,MIC,[8],33.3 µg/mL
same,MIC,[9],n.i.
same,MIC,[10],16.6 µg/mL
same,MIC,[11],16.6 µg/mL
same,MIC,[12],n.i.
same,MIC,[13]; [41],0.6 µg/mL
same,MIC,[13],0.6 µg/mL
same,MIC,[14],3.3 µg/mL
same,MIC,[15],0.6 µg/mL
same,MIC,[15]; [41],0.6 µg/mL
same,MIC,[16],1.2 µg/mL
same,MIC,"[16]; Staphylococcus aureus, MRSA, read-out: MIC",1.2 µg/mL
same,MIC,[17],1.2 µg/mL
same,MIC,"[17]; Staphylococcus aureus, NEWMAN, read-out: MIC",1.2 µg/mL
same,MIC,[18]; 16 h,2.4 µg/mL
same,MIC,"[18]; Staphylococcus, DSM20501, 16 h, read-out: MIC",2.4 µg/mL
same,IC50,[19],> 10 µg/mL
same,IC50,[20],> 10 µg/mL
same,IC50,[21],> 10 µg/mL
same,MIC,[22],1 µg/mL
same,MIC,[23],> 64 µg/mL
same,MIC,[24],> 64 µg/mL
same,MIC,[25],> 64 µg/mL
same,MIC,[26],> 64 µg/mL
same,MIC,[27],16 µg/mL
same,MIC,[28],> 64 µg/mL
same,MIC,[29],> 64 µg/mL
same,MIC,[30],> 64 µg/mL
same,MIC,[31],> 64 µg/mL
same,MIC,[32],32 µg/mL
same,reduction of the number of intracellular bacteria,"[33]; 18 h, MOI 10, cfu counting, tested at 1×, 4× and 8×MIC",3 logs
same,cytotoxicity towards THP-1 host cells,[33]; 18 h treatment of infected macrophages,without causing any apparent cytotoxicity
"O=C(O)c1cn(C2CC2)c2cc(N3CCNCC3)c(F)cc2c1=O [Ciprofloxacin, reference compound]",zone of inhibition at 25 µg/hole,[34],30 mm
same,zone of inhibition at 25 µg/hole,[35],34 mm
same,zone of inhibition at 25 µg/hole,[36],24 mm
same,zone of inhibition at 25 µg/hole,[37],38 mm
same,zone of inhibition at 25 µg/hole,[38],19 mm
same,zone of inhibition at 25 µg/hole,[39],20 mm
same,MIC90,[40],75.4 µM
